# Target: GST-Bcl-2 (Homo sapiens (Human), UniProt P10415)
# Assay: Time Resolved-Fluorescence Resonance Energy Transfer (TR-FRET) Bcl-2 binding assay
# Details: GST-Bcl-2 1 nM, F-Bak peptide probe 100 nM, Tb-anti-GST antibody 1 nM; 3 hours at room temperature; Ki by Wang's equation
# Method: Tb-anti-GST antibody was purchased from Invitrogen (Catalog No. PV4216).
# Representative compounds were serially diluted in dimethyl sulfoxide (DMSO) starting at 50 μM (2× starting concentration; 10% DMSO) and 10 μL were transferred into a 384-well plate. The samples are then mixed on a shaker for 1 minute and incubated for an additional 3 hours at room temperature. For each assay, the probed antibody and protein/probe/antibody were included on each assay plate as negative and positive controls, respectively. Fluorescence was measured on the Envision (Perkin Elmer) using a 340/35 nm excitation filter and 520/525 (F-Bak peptide) and 495/510 nm (Tb-labeled anti-Histidine antibody) emission filters.
# The samples were then mixed on a shaker for 1 minute and incubated for an additional 3 hours at room temperature. For each assay, the probe/antibody and protein/probe/antibody were included on each assay plate as negative and positive controls, respectively. Fluorescence was measured on the Envision (Perkin Elmer) using a 340/35 nm excitation filter and 520/525 (F-Bak peptide) and 495/510 nm (Tb-labeled anti-Histidine antibody) emission filters.
# The inhibition constant (Ki) is the dissociation constant of an enzyme-inhibitor complex or a protein/small molecule complex, wherein the small molecule is inhibiting binding of one protein to another protein. So a large Ki value indicates a low binding affinity and a small Ki value indicates a high binding affinity.
# GST-Bcl-2, sequence (P10415 whole entry): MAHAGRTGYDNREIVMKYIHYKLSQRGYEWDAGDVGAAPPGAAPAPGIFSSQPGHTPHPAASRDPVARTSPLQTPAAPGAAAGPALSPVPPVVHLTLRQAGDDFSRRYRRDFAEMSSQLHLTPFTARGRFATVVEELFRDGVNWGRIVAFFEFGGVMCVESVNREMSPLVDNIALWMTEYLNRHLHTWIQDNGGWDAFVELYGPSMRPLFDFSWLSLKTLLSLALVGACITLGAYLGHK
row,Molecule,Ki
1,"CC1(C)CCC(CN2CCN(c3ccc(C(=O)NS(=O)(=O)c4ccc(NCC5CCOCC5)c([N+](=O)[O-])c4)c(Oc4cccc5c4CC(=O)N5)c3)CC2)=C(c2ccc(Cl)cc2)C1 [Example 268, 4-(4-{[2-(4-chlorophenyl)-4,4-dimethylcyclohex-1-en-1-yl]methyl}piperazin-1-yl)-N-({3-nitro-4-[(tetrahydro-2H-pyran-4-ylmethyl)amino]phenyl}sulfonyl)-2-[(2-oxo-2,3-dihydro-1H-indol-4-yl)oxy]benzamide]",0.042 nM
2,"CC1(C)CCC(CN2CCN(c3ccc(C(=O)NS(=O)(=O)c4ccc(NCCCN5CCCC5)c([N+](=O)[O-])c4)c(Oc4cccc(Cl)c4F)c3)CC2)=C(c2ccc(Cl)cc2)C1 [Example 149, 2-(3-chloro-2-fluorophenoxy)-4-(4-{[2-(4-chlorophenyl)-4,4-dimethylcyclohex-1-en-1-yl]methyl}piperazin-1-yl)-N-({3-nitro-4-[(3-pyrrolidin-1-ylpropyl)amino]phenyl}sulfonyl)benzamide]",0.03 nM
3,"4-(4-{[2-(4-chlorophenyl)-4,4-dimethylcyclohex-1-en-1-yl]methyl}piperazin-1-yl)-N-[(4-{[3-(dimethylamino)propyl]amino}-3-nitrophenyl]-2-(3-fluorophenoxy)benzamide [Example 138]",0.016 nM

# From patent US9303025B2, “Apoptosis-inducing agents for the treatment of cancer and immune and autoimmune diseases” (AbbVie Inc., priority 2008, dated 2016)
